Experimental data taken from US20190148754A1, “USE OF IONIC LIQUIDS AS AN ADJUVANT IN ELECTROCHEMISTRY” (UNIVERSITE DE RENNES 1, priority 2016, published 2019).
≈ marks a conversion by molar mass, not a printed value. Where two headings read alike, the source gives them in different places. One block for each molecule: values may come before it.

Experiments:
[1] = Cyclic voltammetry of electrolytic solutions; assay type: physicochemical; conditions: vitreous carbon electrode
Method: The action of the ionic liquids on the solubility of the organic molecules can be observed by a simple electrochemical analysis. The method used is voltammetry with linear variation of the potential. The result is the plotting of a curve i=f(E) of which the value of the oxidation or reduction current of the electroactive molecule is proportional to its concentration in solution. The electrochemical analyses are performed in an electrochemical cell of which the volume is 40 ml. The volume of the solutions introduced into the electrochemical cell is 10 ml.
In order to perform the analyses, three electrodes immersed in the solution are used: • Working electrode. The working electrode is the location of the studied electrochemical reaction. In this instance, an electrode which is made of vitreous carbon and has a surface of 3 mm diameter, or a nickel electrode of 5 mm diameter was used. The electrochemical reactions are often sensitive to the nature of the electrodes. For example, depending on their nature, some electrodes may passivate and others may not, compared to the same electrochemical system in solution. • Counter electrode. The counter electrode enables the passage of the current in the solution between itself and the working electrode. This electrode must be very stable (for example must not dissolve in the event of oxidation). […]

[2] = Maximum solubility / solubilisation of organic compounds in ionic liquid/basic aqueous solution mixtures (flask method); conditions: for solubility: thermodynamic from solid; for natural solubility in a solution of pH=14: pH=14, without ionic liquid; for concentration of solution obtained: KOH 2M
Method: (§1) 100 mg of the targeted organic compound are introduced into a flask as well as the desired quantity of ionic liquid to be tested. A basic aqueous solution is added in portions of 0.1 mL until a solution is obtained. The maximum concentration is then determined in accordance with the following formula:
Cmax=[mcompound/Mcompound]/V
(§2) Cmax is the maximum concentration of given organic molecule in mol·L^−1, mcompound is the mass of the introduced organic molecule (in g), Mcompound is the molar mass of this organic molecule (in g·mol^−1) and V is the volume of added aqueous solution (in L).
(§3) The quinone is introduced into a volumetric flask (the quantity is dependent on the targeted concentration, generally between 0.1 and 0.5 M). The liquid is added (the quantity is dependent on the solubilising power of the ionic liquid, in stoichiometric quantity in relation to the quinone). An aqueous solution containing hydroxide ions at a concentration between 0.1 and 5 M is added until the flask is full.

physchem = conditions: aqueous with cosolvent or surfactant or cyclodextrin, thermodynamic from solid, Solubility in KOH 2 mol · L^−1 and ionic liquid: Anthraquinone
Method: as §1
Cmax=[mcompound/Mcompound]/V
as §2, §3

[3] = aqueous KOH solution without ionic liquid, aqueous buffer, Solubility in KOH 2 mol · L^−1, aqueous KOH 2 mol·L^−1, without ionic liquid
[4] = aqueous KOH solution with ionic liquid, aqueous with cosolvent or surfactant or cyclodextrin, Solubility in KOH 2 mol · L^−1 and ionic liquid: Anthraquinone, KOH 2 mol·L^−1, ionic liquid (I-a), (I-b) or (I-c) 0.5 mol·L^−1

SMILES: O=C1c2ccccc2C(=O)c2c1cc(S(=O)(=O)[O-])c(O)c2O.[Na+] [Alizarin redS, Alizarin Red S]
increase in the intensity of the oxidation peak and the reduction peak (factor) ([1]; 0.6 M ionic liquid vs none, 100 mV·s^−1 (FIG. 1)): 15
peak current intensity ([1]; 0.6 mol·L^−1 with 0.6 mol·L^−1 ionic liquid, 100 mV·s^−1): greater than 60 mA·cm^−2
solubility ([2]; aqueous KOH solution with ionic liquid, aqueous with cosolvent or surfactant or cyclodextrin, Solubility in KOH 2 mol · L^−1 and ionic liquid: Anthraquinone, KOH 2 mol·L^−1, ionic liquid (I-a), (I-b) or (I-c) 0.6 mol·L^−1): 600 mM
solubility ([2]; aqueous KOH solution with ionic liquid, aqueous with cosolvent or surfactant or cyclodextrin, solubility in the presence of ionic liquid, KOH 2 mol·L^−1, 0.6 M ionic liquid): 600 mM
solubility [2, 3]: 200 mM
solubility ([2]; aqueous KOH solution without ionic liquid, aqueous buffer, solubility in a solution of KOH 2 mol·L^−1, KOH 2 mol·L^−1, without ionic liquid): ~200 mM

SMILES: Nc1cccc2c1C(=O)c1ccccc1C2=O
solubility [2, 4]: 100 mM (≈ 22.3 mg/mL)
solubility [2, 3]: < 100 mM
natural solubility in a solution of pH=14 [2]: very weak

SMILES: O=C1c2ccccc2C(=O)c2cc(S(=O)(=O)O)ccc21
solubility [2, 4]: 100 mM (≈ 28.8 mg/mL)
solubility [2, 3]: < 100 mM
natural solubility in a solution of pH=14 [2]: very weak

SMILES: O=C1c2ccccc2C(=O)c2ccccc21
natural solubility in a solution of pH=14: very weak
solubility (physchem): < 100 mM

The remaining lines, values ahead:

solubility [2, 4]: 500 mM (≈ 120 mg/mL)
solubility [2, 3]: 100 mM (≈ 24 mg/mL)
SMILES: O=C1c2cccc(O)c2C(=O)c2cccc(O)c21

concentration of solution obtained ([2]; 1,3-dimethylimidazolium methyl sulfate 1:1 with alizarin): greater than 0.5 M
concentration of solution obtained ([2]; 1,3-dimethylimidazolium methyl sulfate less than 1:1 to alizarin, precipitate still visible): < 0.5 M
concentration of solution obtained ([2]; N-methylisoquinolinium methyl sulfate 1:1 with alizarin, precipitate still visible): < 0.5 M
concentration in aqueous solution of KOH 2 M with ionic liquid ([2]; KOH 2 M, addition of 10% (vol.) ionic liquid): 0.5 M
concentration of solution obtained ([2]; alizarin/1,3-dimethylimidazolium methyl sulfate/N-methylisoquinolinium methyl sulfate 1:0.5:0.5): 0.8 M
concentration of solution obtained ([2]; either isolated ionic liquid, alizarin/ionic liquid 1:0.5, no solution obtained): < 0.5 M
solubility [2, 4]: 500 mM (≈ 120 mg/mL)
solubility ([2]; aqueous KOH solution with ionic liquid, aqueous with cosolvent or surfactant or cyclodextrin, concentration solubilised in aqueous solution of KOH 2 M with ionic liquid, KOH 2 M, 5% (vol.) ionic liquid): 250 mM (≈ 60.1 mg/mL)
solubility [2, 3]: 100 mM (≈ 24 mg/mL)
solubility ([2]; aqueous KOH solution without ionic liquid, aqueous buffer, soluble concentration in aqueous solution of KOH 2 M, KOH 2 M, without ionic liquid (saturation)): 100 mM (≈ 24 mg/mL)
SMILES: O=C1c2ccccc2C(=O)c2c1ccc(O)c2O [alizarin, Alizarin]
